The source of these data is publication PMC11203437, “Subtle Structural Differences Affect the Inhibitory Potency of RGD-Containing Cyclic Peptide Inhibitors Targeting SPSB Proteins” (International Journal of Molecular Sciences, 2024).

The target of assay [1] is T1, SPSB2 (His6-tagged SPRY domain of human SPSB2, residues 22-220) (Homo sapiens, UniProt Q99619).
T1 construct: His6; made in house
T1 sequence (Q99619 22-220): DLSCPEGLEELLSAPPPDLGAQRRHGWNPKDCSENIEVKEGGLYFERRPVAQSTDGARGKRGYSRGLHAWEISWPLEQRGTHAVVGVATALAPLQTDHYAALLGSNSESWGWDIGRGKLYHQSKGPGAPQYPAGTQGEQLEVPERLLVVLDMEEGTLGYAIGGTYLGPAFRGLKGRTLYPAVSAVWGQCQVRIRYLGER
Kind of assay: isothermal titration calorimetry (ITC), binding to SPSB2. The note with it: ITC Kd compared with cR8 Kd reported previously [19]. Here is the method:
(§1) The preparation of the recombinant His6-tagged SPRY domain of human SPSB2 (UniProtKB accession number Q99619, residues 22-220) has been previously described. Briefly, SPSB2 protein was initially purified using a Ni-NTA column and the amount of the protein was measured using the Bradford method. Either cR7 or cR9, at 1.5-fold molar excess, was then added to the protein and the SPSB2-cR7 and SPSB2-cR9 complexes were purified by gel filtration using a HiLoad 16/600 Superdex 75 column (GE Healthcare, Marlborough, MA, USA) equilibrated against a buffer containing 50 mM Tris-HCl pH 7.5, 150 mM NaCl, 5 mM DTT. To generate the GST-fusion proteins used in the cell lysate inhibition assay, the SPRY domains of human TRIM25 (UniProtKB Q14258, residues 433-630), SPSB2, SPSB1 (UniProtKB Q96BD6, residues 28-232), and SPSB4 (UniProtKB Q96A44, residues 28-232) were inserted into the pGEX-4T-2 vector (GE Healthcare, Marlborough, MA, USA). Protein expression was induced in an LB medium supplemented with 0.1 mM isopropyl β-D-1-thiogalactopyranoside (IPTG) at 18 °C overnight. […]
All ITC measurements were performed at 25 °C using iTC200 (Malvern Panalytical, Malvern, UK). […] The dissociation constant (Kd) was calculated, with the error from the Origin-calculated association constant (K) transferred as the same fraction of the primary value.

The test system of assay [2] is SPSB2-iNOS interaction (GST-tagged SPRY domain of SPSB2; full-length iNOS from RAW 264.7 lysate). As to the kind of experiment: cell lysate inhibition assay, SPSB2-iNOS interaction (GST pull-down, Western blot). It counts as biochemical, human (SPSB2). The note with it: for displacement of full-length iNOS from SPSB2: 10 μM peptide, LPS/IFN-γ-stimulated RAW 264.7 lysate, 2 h, pH 7.5 lysis buffer, GST pull-down, anti-iNOS Western blot. Here is the method:
(§2) Figure 6 Inhibition of SPSB-iNOS interactions by cR7, cR8, and cR9. Cell lysates from lipopolysaccharide/interferon-γ-stimulated RAW 264.7 cells were incubated with the GST-tagged SPRY domains of (A) SPSB2, (B) SPSB1, and (C) SPSB4 in the absence or presence of cR7, cR8, and cR9. GST-tagged SPRY domain of TRIM25 was used as a negative control. A 9-mer linear peptide (hK9) derived from the iNOS N-terminal region was included as a control. After interaction for 2 h, GST-fusion proteins were recovered via affinity purification using glutathione-sepharose 4B beads. Interaction with full-length iNOS was analyzed by Western blotting with anti-iNOS antibody (upper panels) and equivalent protein input was confirmed by reprobing the membranes with anti-GST antibody (lower panels).
as §1, with “overnight. Cells were harvested and resuspended in PBS, and then lysed using a cell disruptor (JNBIO, Guangzhou, China). Soluble GST-tagged proteins were purified using a glutathione sepharose 4B column prepared with PBS.” for “overnight.”

In assay [3] the test system is SPSB1-iNOS interaction (GST-tagged SPRY domain of SPSB1; full-length iNOS from RAW 264.7 lysate). As to the kind of experiment: cell lysate inhibition assay, SPSB1-iNOS interaction (GST pull-down, Western blot). Type of assay: biochemical, human (SPSB1). As to conditions: for inhibition of SPSB1-iNOS interaction: 1 μM peptide, LPS/IFN-γ-stimulated RAW 264.7 lysate, 2 h, GST pull-down, anti-iNOS Western blot. Here is the method: as §2
as §1, with “overnight. Cells were harvested and resuspended in PBS, and then lysed using a cell disruptor (JNBIO, Guangzhou, China). Soluble GST-tagged proteins were purified using a glutathione sepharose 4B column prepared with PBS.” for “overnight.”

For assay [4], the system named is SPSB4-iNOS interaction (GST-tagged SPRY domain of SPSB4; full-length iNOS from RAW 264.7 lysate). Kind of assay: cell lysate inhibition assay, SPSB4-iNOS interaction (GST pull-down, Western blot). It counts as biochemical, human (SPSB4). As to conditions: for displacement of full-length iNOS from SPSB4: 10 μM peptide, LPS/IFN-γ-stimulated RAW 264.7 lysate, 2 h, GST pull-down, anti-iNOS Western blot. The protocol:
as §2
as §1, with “overnight. Cells were harvested and resuspended in PBS, and then lysed using a cell disruptor (JNBIO, Guangzhou, China). Soluble GST-tagged proteins were purified using a glutathione sepharose 4B column prepared with PBS.” for “overnight.”

The target in assay [5] is T2, His6-tagged SPRY domain of human SPSB2 (residues 22-220) (human, UniProt Q99619 22-220).
T2 construct: SPRY domain of human SPSB2, UniProtKB Q99619, residues 22-220; also called SPRY domain-containing SOCS box protein 2; source: recombinant, purified (Ni-NTA; complexes with peptide by gel filtration on Superdex 75); preparation previously described [26]
T2 sequence (looked up): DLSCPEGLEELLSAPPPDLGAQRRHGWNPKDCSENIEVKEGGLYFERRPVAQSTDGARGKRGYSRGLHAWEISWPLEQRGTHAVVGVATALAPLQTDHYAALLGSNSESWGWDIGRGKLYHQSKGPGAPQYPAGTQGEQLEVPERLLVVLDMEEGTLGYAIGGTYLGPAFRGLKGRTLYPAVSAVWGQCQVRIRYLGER
As to the kind of experiment: ITC; 100 μM cR7 or cR9 titrated into 10 μM SPSB2; 25 °C; 50 mM Tris-HCl pH 7.5, 150 mM NaCl, 5 mM DTT; single binding site model. The note with it: both partners purified.

Assay [6] concerns the target T3, GST-tagged SPRY domain of human SPSB4 (residues 28-232) (human, UniProt Q96A44 28-232).
T3 construct: SPRY domain of human SPSB4, UniProtKB Q96A44, residues 28-232; Cloned into pGEX-4T-2; source: recombinant, induced with IPTG in LB medium, purified (glutathione sepharose 4B)
T3 sequence (looked up): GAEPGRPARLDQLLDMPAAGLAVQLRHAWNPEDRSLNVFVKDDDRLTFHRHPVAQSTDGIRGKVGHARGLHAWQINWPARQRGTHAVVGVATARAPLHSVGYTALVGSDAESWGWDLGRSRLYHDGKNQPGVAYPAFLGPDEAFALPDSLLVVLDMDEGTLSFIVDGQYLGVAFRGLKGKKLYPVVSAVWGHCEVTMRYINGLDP
Kind of assay: pull-down; competition: 1 μM or 10 μM cyclic peptide added to the RAW 264.7 lysate with 2 μg/mL GST-tagged SPRY domain for 2 h; iNOS recovered on glutathione sepharose 4B read by Western blot. As to conditions: both partners purified.

Assay [7] concerns the target T4, GST-tagged SPRY domain of human SPSB1 (residues 28-232) (human, UniProt Q96BD6 28-232).
T4 construct: SPRY domain of human SPSB1, UniProtKB Q96BD6, residues 28-232; Cloned into pGEX-4T-2; also called SPSP1; source: recombinant, induced with IPTG in LB medium, purified (glutathione sepharose 4B)
T4 sequence (looked up): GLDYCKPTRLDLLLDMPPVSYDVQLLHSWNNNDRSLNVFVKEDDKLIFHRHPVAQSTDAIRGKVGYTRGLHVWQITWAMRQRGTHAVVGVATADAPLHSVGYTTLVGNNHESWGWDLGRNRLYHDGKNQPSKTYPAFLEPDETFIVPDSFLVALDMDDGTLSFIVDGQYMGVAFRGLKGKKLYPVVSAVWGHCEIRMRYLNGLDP
Described as above. The note with it: both partners purified.

The mark [8] stands for this setting: overall comparison of cR7, cR8 and cR9, 1 or 10 μM, Western blot.

Peptide text beside a SMILES is read from it.

In the case of `CC[C@H](C)[C@@H]1NC(=O)[C@H](CC(=O)O)NC(=O)CNC(=O)[C@H](CCCNC(=N)N)NC(=O)[C@H](CCC(=O)O)NC(=O)[C@H](C(C)C)NC(=O)[C@H](CC(N)=O)NC(=O)[C@H](CC(N)=O)NC(=O)[C@H](CC(N)=O)NC1=O` [cR9, cyclo(RGDINNNVE)] (cyclo(RGDINNNVE)), in assay [1], the “SPSB2-binding affinity, fold higher than cR8” value is ~ 2 fold. In addition, the “displacement of full-length iNOS from SPSB2” value in assay [2] is listed as “able to displace full-length iNOS binding to SPSB2”. The “inhibition of SPSB1-iNOS interaction” value in assay [3] is “can effectively inhibit SPSB1-iNOS interaction”. Also, the “displacement of full-length iNOS from SPSB4” value in assay [4] is reported as “able to displace full-length iNOS binding to SPSB4”.

Take `CC[C@H](C)[C@@H]1NC(=O)[C@H](CC(=O)O)NC(=O)CNC(=O)[C@H](CCCNC(=N)N)NC(=O)[C@H](CC(N)=O)NC(=O)[C@H](CC(N)=O)NC(=O)[C@H](CC(N)=O)NC1=O` [cR7, cyclo(RGDINNN)] (cyclo(RGDINNN)): the “SPSB2-binding affinity, fold higher than cR8” value in assay [1] was ~ 6.5 fold. For the same molecule, the “displacement of full-length iNOS from SPSB2” value in assay [2] is recorded as “able to displace full-length iNOS binding to SPSB2”. The “overall inhibition of SPSB2-iNOS interaction, relative” value in assay [2] (setting [8]) was “stronger inhibition”. Besides, in assay [3], the “inhibition of SPSB1-iNOS interaction” value is “can effectively inhibit SPSB1-iNOS interaction”. The “overall inhibition of SPSB1-iNOS interaction, relative” value in assay [3] (setting [8]) is on record as “stronger inhibition”. In addition, the “displacement of full-length iNOS from SPSB4” value in assay [4] was “able to displace full-length iNOS binding to SPSB4”. In addition, the “overall inhibition of SPSB4-iNOS interaction, relative” value in assay [4] (setting [8]) is on record as “stronger inhibition”.

B1: cR9, cyclo(RGDINNNVE) (peptide)
peptide: RGDINNNVE
modifications: head-to-tail amide-cyclized
notes: designed cyclic peptide: RGD motif joined to the iNOS-derived stretch DINNNVE; Cyclic: the last residue is amide-bonded to the first; source: synthetic peptide (GL Biochem Ltd.)
For B1, the Kd in assay [5] came to 308 nM. In addition, the binding result in assay [6] and in assay [7] was “binds” in each case.

B2: cR7, cyclo(RGDINNN) (peptide)
peptide: RGDINNN
modifications: head-to-tail amide-cyclized
notes: Cyclic: the last residue is amide-bonded to the first; source: synthetic peptide (GL Biochem Ltd.)
As to B2, in assay [5], binding was put at a Kd of 103 nM and the “stoichiometry N” value was determined as 1. Further, in assay [6], the binding result is on record as “binds”. The binding result in assay [7] is reported as “binds”.
